Measurements taken from publication PMC8176454, “Synthesis and Assessment of Novel Probes for Imaging Tau Pathology in Transgenic Mouse and Rat Models” (ACS Chemical Neuroscience, 2021).
Read-outs that look alike come from different tables or passages of the source.

Assays:
[1] = target: T1, heparin-induced synthetic recombinant tau fibrils (tau-441 human) (Homo sapiens, UniProt P10636); assay: Fluorescence quenching assay of compound binding to heparin-induced synthetic recombinant tau fibrils; conditions: read-out: Kd of compound binding to heparin-induced synthetic tau fibrils determined by fluorimetry
T1 construct: purchased Eurogentec
T1 sequence (P10636 1-441 isoform P10636-8): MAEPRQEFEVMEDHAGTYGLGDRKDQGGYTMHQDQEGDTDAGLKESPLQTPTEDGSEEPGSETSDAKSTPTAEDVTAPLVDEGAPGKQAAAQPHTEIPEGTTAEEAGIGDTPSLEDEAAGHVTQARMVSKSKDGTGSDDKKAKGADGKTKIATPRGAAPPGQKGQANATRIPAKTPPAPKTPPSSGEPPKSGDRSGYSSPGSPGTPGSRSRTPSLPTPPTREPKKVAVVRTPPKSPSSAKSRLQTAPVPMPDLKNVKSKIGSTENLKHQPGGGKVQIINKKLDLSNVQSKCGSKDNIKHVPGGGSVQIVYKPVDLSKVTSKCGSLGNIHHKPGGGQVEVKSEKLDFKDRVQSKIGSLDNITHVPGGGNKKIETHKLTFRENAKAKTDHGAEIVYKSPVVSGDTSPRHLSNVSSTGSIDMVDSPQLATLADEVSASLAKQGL
Procedure: All compounds were assessed for their ability to bind to synthetic recombinant tau fibrils using a fluorescence quenching assay[20] […] Binding affinities for some compounds (141, 164, 166, 169, 171, and 207) could not be assessed with this assay because of negligible changes in fluorescence intensity. […] This compound was then selected for further characterization and development.
All reagents and solvents were used as supplied or purified using standard procedures as necessary. Analytical separation was conducted on an Ultimate 3000 HPLC system (Thermo Scientific). [^11C]CO2 was produced via the ^14N(p,α) nuclear reaction using GE PETtrace cyclotron applying 16.5 MeV protons onto 0.5% oxygen in nitrogen gas. [^11C]Methyl iodide was synthesized on a GE Medical Systems MeI MicroLab. A F-4500 FL spectrophotometer (Chemical Engineering department, University of Cambridge) was used to do fluorescence scan of all of the compounds mixed with tau fibrils. Excitation wavelength was 365 nm, and emission was scanned from 400 to 600 nm. With parameters, setting excitation slit was 5.0 nm, emission slit was 20.0 nm, PMT voltage was 950 V, and response was 0.5 s.
Monomeric tau (tau-441 human) lyophilized powder was obtained from Eurogentec. Tau monomers (100 μM) were prepared in 20 mM BES buffer (pH 7.4 with 25 mM NaCl and 2 mM dithiothreitol and incubated at 56 °C for 10 min. After being cooled to room temperature in a water bath, heparin (25 μM) and a protease inhibitor mix were added and incubated at 37 °C for 10 days. […]
Binding affinity of all compounds with tau fibrils […]
All other compounds binding affinit ies towards tau fibrils
were then tested by fluorescent binding assay. […]

[2] = target: T2, tau inclusions in brain sections from transgenic P301S tau mice (human 0N4R tau) (Homo sapiens, UniProt P10636, P618S); assay: In vitro fluorescence microscopy of binding to transgenic P301S tau mouse brain sections
T2 construct: from tissue; host or cells: brain of transgenic P301S tau mice (C57Bl/6 background)
T2 sequence (P10636 1-383 isoform P10636-6 P243S): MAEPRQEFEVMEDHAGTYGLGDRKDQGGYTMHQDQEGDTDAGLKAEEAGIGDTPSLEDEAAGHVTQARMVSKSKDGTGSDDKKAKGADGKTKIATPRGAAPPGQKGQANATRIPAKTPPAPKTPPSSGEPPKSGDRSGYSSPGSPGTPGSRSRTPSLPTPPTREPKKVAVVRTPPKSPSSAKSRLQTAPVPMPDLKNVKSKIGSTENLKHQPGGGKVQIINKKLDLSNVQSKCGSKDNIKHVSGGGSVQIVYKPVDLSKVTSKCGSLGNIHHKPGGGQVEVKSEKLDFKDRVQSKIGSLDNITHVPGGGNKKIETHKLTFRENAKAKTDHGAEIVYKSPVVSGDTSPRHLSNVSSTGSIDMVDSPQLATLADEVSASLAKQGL
Procedure: We then screened all of the compounds for their binding to tau inclusions in brain sections from transgenic P301S tau mice, which express the shortest isoform (0N4R) of human 4-repeat (4R) tau,[18] using their autofluorescence properties to rapidly analyze their binding.
Mice were perfused with PBS followed by 4% PFA. Following 24 h in 4% PFA, the brains were transferred to 20% sucrose prior to being embedded in OCT for cryo-sectioning. Sections (14 μm) were incubated with 50 μM LM229 or PBB3 for 1 h, washed in PBS + 0.1% Triton X-100, and cover-slipped with Vectashield mounting medium. Sections were imaged using a Leica DM6000 microscope. Mouse monoclonal AT8 (MN1020) or AT100 (MN1060) were from ThermoFisher and used at 1:1000. Anti-mouse secondary antibody was conjugated to AlexaFluor647.

[3] = test system: tau aggregates in DRG neurons from P301S tau mice; assay: Fluorescence binding to cultured DRG neurons from P301S tau transgenic mice; assay type: cell-based, mouse; conditions: for IC50: Mus musculus, DRG neuron
Procedure: P301S tau mice with aggregated tau in the brain also express aggregated tau in DRG neurons.[24]−[26] […] To estimate the apparent affinity of LM229 to tau aggregates directly in living neurons, we imaged live neurons after 20 min incubation with various concentrations of LM229 (Figure 4A). […] LM229 binding was specific to neurons with aggregated tau, as detected with the AT100 antibody[18],[22],[23],[26] (Figure 4D). […] Although PBB3 also bound to DRG neurons with tau aggregates at 30–100 μM, it was not possible to derive an IC50 value because of its low affinity in this assay (Supporting Information, Figure S2). […] The shift from nanomolar to micromolar affinity between binding to heparin tau fibrils and tau aggregates in P301S tau neurons may reflect the different environment and assay conditions or the different conformations that tau aggregates assume in neurons compared to heparin–tau complexes.[27]
Neurons were prepared from phenotypic end stage 5–7 month old P301S tau mice and cultured as described previously.[24] For live staining, neurons cultured for 2 days were washed in PBS and incubated with various concentrations of LM229 for 20 min at room temperature. After three washes in PBS, neurons were imaged on a Leica DMI 4000B microscope using a DFC3000 G camera and application suite 4.0.0.11706. The dead cell stain Propidium iodide (1 μg/mL) was added to ensure that only live cells were imaged. Phase contrast images were taken to show viable neurons. For fixed cell staining, neurons were fixed for 20 min at room temperature in 4% paraformaldehyde, washed in PBS, and permeabilized in PBS containing 0.3% Triton X-100. LM299 was added as described for live cells, and cells were probed with AT100 (1:1000, MN1060) followed by anti-mouse AlexaFluor568 secondary antibody. Cultures were co-stained with the nuclear dye DAPI (blue) to reveal total cells. […]
Binding to cultured neurons from P301S tau transgenic mice
DRG were incubated with the indicated concentrations of LM229 or PBB3 for 20 minutes at room temperature, washed 3 times in PBS, and imaged on a Leica DMI 4000B microscope using a Leica DFC3000 G camera and the Leica application suite 4.0.0.11706. Fluorescence intensity was measured in 10-16 neurons each from 3 independent cultures using Image J (imagej.nih.gov/ij/). Results shown are mean ± SD. Non linear least squares curve fitting was applied using http://faculty.gvsu.edu/carlsont/232lab/nonlin2.html. No Km value was […]
Figure S2: Binding of LM229 and PBB3 to DRG neurons with tau aggregates […]
(1 picture or pasted object on this page, not shown here)

[4] = target: β-amyloid in AD frontal cortex sections (Homo sapiens, UniProt P05067); assay: Staining of post-mortem AD frontal cortex sections, β-amyloid
Sequence of β-amyloid in AD frontal cortex sections (P05067 672-711 limits assumed): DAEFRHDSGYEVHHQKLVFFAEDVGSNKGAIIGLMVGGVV
Excerpt: To further validate LM229 as a potential radiotracer for translational research, we investigated its binding to tau aggregates in human globus pallidus/putamen from progressive supranuclear palsy (PSP) subjects (Figure 7) and its selectivity for tau over β-amyloid pathology in AD frontal cortex sections (Figure 8). […] In slices from frontal cortex of AD brains, LM229 gave rise to strong signal (Figure 8A), which colocalized with AT8 immunofluorescence (Figure 8B).

Kd [1]: 3.6 nM
Binding to P301S tau mouse brain sections, 2 months of age ([2]; 2 months old mice): Rare binding
Binding to tau inclusions in P301S tau mouse brain sections ([2]; autofluorescence, co-staining with AT8 and AT100): intense, specific binding
Binding to WT mouse brain sections ([2]; brainstem sections from WT animals): No specific binding
IC50 ([3]; 20 min, live DRG neurons, 20 min incubation, read-out: IC50, apparent affinity to tau aggregates in live neurons): 2700 ± 700 nM
IC50 ([3]; fixed DRG neurons, figure legend value, read-out: IC50, fixed neurons (Figure 4B)): 1670 ± 280 nM
IC50 ([3]; fixed, permeabilized DRG neurons, read-out: IC50, fixed and permeabilized neurons): 1700 ± 300 nM
IC50 ([3]; live DRG neurons, figure legend value, read-out: IC50, live neurons (Figure 4B)): 2970 ± 730 nM
Cell permeability ([3]; live vs fixed/permeabilized DRG neurons): highly cell permeable
Fluorescence intensity colocalized with Aβ relative to tau [4]: lower
Compound: CNc1ccc(/C=C/C=C/c2nc3cc(F)c(O)cc3s2)cn1 [LM229]
Binding to P301S tau mouse brain sections, 6 months of age ([2]; 6 months old mice): significant binding to large populations of neurons
Retention of fluorescence in neurons after exposure and washes ([3]; 3 days after exposure): still retained albeit to a lower intensity
